Tests used:
Format in all cases: in vivo
[1] = system: human patients; assay: Human study: change in insulin; details: for Change from Baseline in Insulin, Max / Change from Baseline in Insulin, Mean / Change from Baseline in Insulin, Median / Change from Baseline in Insulin, Min: ITT
Experimental: (§1) The effects of BAFACs on disorders associated with Fatty liver, insulin resistance and altered glucose metabolism were tested on 60 human patients. Experiments were subdivided to 2 dosage regimens: Aramchol 300 mg daily (high dose) and 100 mg daily (low dose) respectively for a total period time of 3 months. The Aramchol:placebo ratio is of 2:1 for the low dose arm, and 1:1 for the high dose arms.
(§2) The study period included a 3 month treatment period with Aramchol low dose, or Aramchol high dose, or placebo, and a one month follow-up period. Aramchol was given daily orally. During the treatment period, all patients attended periodic […] (at first month) and subsequently monthly study-center visits in order to assess safety and efficacy of the treatment.
(§3) The results are shown using two known in the art principle statistical evaluation on, Intention-To-Treat (ITT) and Per Protocol (PP) populations. The ITT principle asserts that the effect of a treatment policy can be best assessed by evaluation on the basis of the intention to treat a subject (i.e. the planned treatment regimen) rather than the actual treatment given. It has the consequence that subjects allocated to a treatment group should be followed up, assessed and analyzed as members of that group irrespective of their compliance to the planned course of treatment. […] Compliance covers such considerations as exposure to treatment, availability of measurements and absence of major protocol violations.

[2] = system: Wistar male rats; assay: Fasting blood glucose, rats on regular or high fat diet; details: 4 weeks
Experimental: (§4) The effects of BAFACs on fasting blood glucose were tested in 3 animal species: Hamsters, Rats and Mice. The animals were kept on regular or high fat diets (as specified). In each group half of the animals received a daily BAFAC dose (150 mg/kg) dispersed in 0.5 ml of saline by gavage. The other half received similarly, by gavage, an equal volume of saline only. All animals were kept on a 12 hr day/night cycle at 22° C. throughout the experiment. They had access to water ad libidum.
Wistar male rats 4 weeks old (100-120 gm) were fed a regular chow diet or a high fat diet enriched with lard (10%), cholesterol (2.5%) and cholic acid (0.5%) (w/w). Blood and organ samples were obtained after sacrifice (in the fasting state) after 4 weeks of the trial. Half of the animals in each group were given BAFAC 150 mg/kg; the others were given an equal volume of saline. There were 7 rats in the control and test groups on a regular diet and 6 rats in each group given a high fat diet.
The hamsters and rats on the high fat diets developed fatty liver (confirmed by chemical measurement of liver fat), a high fasting blood glucose, and represented models of NIDDM.
ICR male mice, 4 weeks old (approx. 20 gm) were fed a regular diet. Streptozotocin 200 mg/kg was injected i.p. on the first day of the experiment. (This induced damage to the islet cells of the pancreas and simulated IDDM). […]

[3] = system: ICR male mice; assay: Fasting blood glucose, streptozotocin treated mice (IDDM model); details: Streptozotocin 200 mg/kg i.p., regular diet, BAFAC 150 mg/kg/day by gavage, 16 days
Experimental: as §4
ICR male mice, 4 weeks old (approx. 20 gm) were fed a regular diet. Streptozotocin 200 mg/kg was injected i.p. on the first day of the experiment. (This induced damage to the islet cells of the pancreas and simulated IDDM). Fasting blood glucose was obtained from sacrificed animals after 16 days of the trial. There were 3 groups of 7 animals each. Controls—regular diet only. Streptozotocin (Stz) treated animals receiving saline only by gavage and streptozocin treated animals receiving 150 mg/kg/day of BAFAC by gavage. The BAFAC used in all these hyperglycemia studies was a conjugate of arachidic and cholic acid (at position 3) using an amide bond (C-20 BAFAC, Aramchol).

[4] = system: C57 male inbred mice; assay: Fatty liver histologic score, mice on Western diet; details: Western diet + BAFAC 150 mg/kg/day, 4 W
Experimental: The presence of fatty liver was evaluated by a pathologist unaware of the treatments, scoring coded slides in a blinded manner.
The scoring system was as follows:
C57 male inbred mice (Jackson Lab., Maine, USA) 4-6 weeks old weighing 20-25 gm were used. They were fed a “Western” diet (George et. al. Circulation 2000, 102:1822-27) containing cholesterol 1.5 gm/kg and Fat 42%, Carbohydrates 43%, and Protein 15% (as % of calories). Half were given in addition 150 mg/kg/day of 3β-arachidylamido-7α,12α-dihydroxy-5β-cholan-24-oic acid suspended in saline by intragastric gavage. The other half were similarly given saline only. After 4 weeks the animals were anesthetized and sacrificed. Liver and other organs were removed and placed in formaline prior to histologic examination

[5] = system: human patients; assay: Human study: change in adiponectin; design: Change in Adiponectin from Baseline, Mean / Change in Adiponectin from Baseline, Median / Change in Adiponectin from Baseline, Max: unit not given here; details: for Change in Adiponectin from Baseline, Max / Change in Adiponectin from Baseline, Mean / Change in Adiponectin from Baseline, Median / Change in Adiponectin from Baseline, Min: 3 months
Experimental: as §1, §2, §3

[6] = system: human patients; assay: Human study: safety; details: Aramchol at 300 and 100 mg/d oral, 3 months, vs placebo
Experimental: as §1, §2
No changes in adverse events or in vital signs were observed between the groups.

CCCCCCCCCCCCCCCCCCCC(=O)N[C@H]1CC[C@@]2(C)[C@@H](C1)C[C@@H](O)[C@@H]1[C@@H]2C[C@H](O)[C@]2(C)[C@@H]([C@H](C)CCC(=O)O)CC[C@@H]12 [Aramchol, 3β-arachidylamido-7α,12α-dihydroxy-5β-cholan-24-oic acid]
Change from Baseline in Insulin, Max ([1]; Aramchol 100 mg/d oral): 38.9 | Change from Baseline in Insulin, Mean ([1]; Aramchol 100 mg/d oral): 5.6 | Change from Baseline in Insulin, Median ([1]; Aramchol 100 mg/d oral): 2.5 | Change from Baseline in Insulin, Min ([1]; Aramchol 100 mg/d oral): −7.4 | Change from Baseline in Insulin, Max ([1]; Aramchol 300 mg/d oral): 9.1 | Change from Baseline in Insulin, Mean ([1]; Aramchol 300 mg/d oral): −21.1 | Change from Baseline in Insulin, Median ([1]; Aramchol 300 mg/d oral): 0.9 | Change from Baseline in Insulin, Min ([1]; Aramchol 300 mg/d oral): −367.5 | basal insulin levels (in words) ([1]; tested subjects, Table 8): reduces basal insulin levels | fasting blood glucose ([2]; high fat diet (fatty liver), BAFAC 150 mg/kg by gavage, vs saline): markedly reduced | blood glucose ([2]; normal (regular) diet, no hyperglycemia or fatty liver, BAFAC 150 mg/kg): no effect | fasting blood glucose [3]: markedly reduced | Fatty Liver Scores: number of animals with score 0 ([4]; n 14, 0 - No fatty liver): 12 | Fatty Liver Scores: number of animals with score 1 ([4]; n 14, 1 - Minimal fatty liver): 1 | Fatty Liver Scores: number of animals with score 4 ([4]; n 14, 4 - Severe fatty liver): 1 | Fatty Liver Score, mean ([4]; score 0 (no fatty liver) to 4 (severe, >50% of liver surface)): 0.35 | Change in Adiponectin from Baseline, Max ([5]; Aramchol 100 mg/d oral, ITT): 11.1 | Change in Adiponectin from Baseline, Mean ([5]; Aramchol 100 mg/d oral, ITT): −3.4 | Change in Adiponectin from Baseline, Median ([5]; Aramchol 100 mg/d oral, ITT): −2.7 | Change in Adiponectin from Baseline, Min ([5]; Aramchol 100 mg/d oral, ITT): −46.3 | Change in Adiponectin from Baseline, Max ([5]; Aramchol 100 mg/d oral, PP): 11.1 | Change in Adiponectin from Baseline, Mean ([5]; Aramchol 100 mg/d oral, PP): −3.4 | Change in Adiponectin from Baseline, Median ([5]; Aramchol 100 mg/d oral, PP): −2.3 | Change in Adiponectin from Baseline, Min ([5]; Aramchol 100 mg/d oral, PP): −46.3 | Change in Adiponectin from Baseline, Max ([5]; Aramchol 300 mg/d oral, ITT): 41.7 | Change in Adiponectin from Baseline, Mean ([5]; Aramchol 300 mg/d oral, ITT): 1.8 | Change in Adiponectin from Baseline, Median ([5]; Aramchol 300 mg/d oral, ITT): −1.3 | Change in Adiponectin from Baseline, Min ([5]; Aramchol 300 mg/d oral, ITT): −28.0 | Change in Adiponectin from Baseline, Max ([5]; Aramchol 300 mg/d oral, PP): 41.7 | Change in Adiponectin from Baseline, Mean ([5]; Aramchol 300 mg/d oral, PP): 1.8 | Change in Adiponectin from Baseline, Median ([5]; Aramchol 300 mg/d oral, PP): −1.3 | Change in Adiponectin from Baseline, Min ([5]; Aramchol 300 mg/d oral, PP): −28.0 | levels of adiponectin (in words) ([5]; Aramchol 300 mg/d, tested subjects, Tables 5 and 6): increases the levels of adiponectin | Safety (adverse events, vital signs) [6]: not associated with any safety concerns
